Reference: PMC9234964, “Design, Synthesis, and Biological Evaluation of a Novel Series of 4-Guanidinobenzoate Derivatives as Enteropeptidase Inhibitors with Low Systemic Exposure for the Treatment of Obesity” (Journal of Medicinal Chemistry, 2022)
Where two headings read alike, the source gives them in different places.

Experiments:
[1] = system: Human Multi-drug Resistance 1 (MDR-1) Expressing Cells; assay: Membrane permeability with MDR1-expressing cells (A to B); format: in vitro ADME; settings: apical to basolateral, 10 μmol/L, 2 h
Method: The transcellular transport study was performed as reported previously.[40] In brief, the cells were grown in a HTS transwell 96 well permeable support (pore size 0.4 μm, 0.143 cm^2 surface area) with a polyethylene terephthalate membrane (Corning Life Sciences, Lowell, MA, USA) at a density of 1.125 × 10^5 cells/well. The cells were preincubated with M199 at 37 °C for 30 min. Subsequently, transcellular transport was initiated by the addition of M199 to apical compartments containing 10 μmol/L test compounds and terminated by the removal of each assay plate after 2 h. The aliquots in the opposite compartments were subjected to be measured for compound concentration by LC–MS/MS. Permeability was calculated using the permeated compound concentration.

[2] = PAMPA (parallel artificial membrane permeability assay); format: in vitro ADME; settings: PAMPA
High-Fat-Diet-Fed Mice = assay: Increase in fecal protein output in high-fat-diet-fed mice; format: in vivo, mouse; settings: for fecal protein output (fold of 2a): oral
Method: A high-fat diet (HFD)-fed mouse (D12079B diet, male, 14–21 weeks old) was used for the in vivo assay. For compound screening, mice were orally administered with either the test compound (10 mg/kg) or 0.5% methylcellulose (MC) as a vehicle control. For the assessment of efficacy by systemic exposure of the compound, mice were subcutaneously administered with compound 2a (10 mg/kg) or saline as a vehicle control and compared with those administered oral treatment (60 mg/kg). Doses were selected to achieve equivalent systemic exposure as the area under the curve over 24 h based on pharmacokinetic data of both oral and subcutaneous administration. Whole feces were collected overnight, and the fecal protein output was evaluated as described previously.[33]

[3] = Aqueous stability at pH 1.2/6.8; format: physicochemical; settings: 24 h; for stability at pH 1.2 (% decomposed): pH 1.2, 37 °C; for stability at pH 6.8 (% decomposed): pH 6.8, 37 °C
Method: Sample solutions in pH 1.2/6.8 media (first/second fluids for the disintegration test in the Japanese Pharmacopoeia 17th edition, including 10% dimethyl sulfoxide if needed, 10 μg/mL) were prepared for the compounds and incubated at 37 °C. The sample solutions were measured initially and at 24 h using HPLC, and peak analysis was conducted. Residual contents (%) of the compounds in pH 1.2/6.8 media at 37 °C after 24 h of incubation of the initial solutions were calculated using the peak areas.

human enteropeptidase [4] = target: T1, human enteropeptidase (Homo sapiens, UniProt P98073); assay: Human enteropeptidase enzyme assay; format: biochemical; settings: for IC50: substrate and compound at room temperature, 95% confidence intervals in parentheses
T1 construct: purchased ITSI-Biosciences, LLC #REN-260
Method: Human recombinant enteropeptidase (#REN-260, ITSI-Biosciences, LLC) was diluted with an assay buffer (50 mM tricine (pH 8.0), 0.01(w/v)% Tween 20, 10 mM CaCl2) to prepare a 24 mU/mL enzyme solution. Subsequently, 5FAM–Abu–[…]CPQ2)–Lys–Lys–NH2 (purity: 97.2%, CPC Scientific, Inc.) was diluted with an assay buffer to prepare a 2.1 μM substrate solution. Compounds were dissolved in DMSO and then diluted in the assay buffer. The compound solution (5 μL/well) and the substrate solution (5 μL/well) were added to a 384-well black plate (#784076, Greiner Bio-One) and mixed. Then, the enzyme solution (5 μL/well) was added to the plate and mixed to start the reaction. The fluorescence intensity was measured at an excitation wavelength of 485 nm and a fluorescence wavelength of 535 nm using a fluorescence plate reader EnVision (PerkinElmer Inc.). Also, the same reaction as above was performed except that the test compound was not added (test compound non-supplemented group). In addition, the same reaction as above was performed except that neither the test compound nor the enzyme was added (control group).
(§1) Inhibition rate (%) = (1 – (fluorescence intensity of the test compound supplemented group – fluorescence intensity of the control group)/(fluorescence intensity of the test compound non-supplemented group – fluorescence intensity of the control group)) × 100.

human enteropeptidase [5] = target: T1, human enteropeptidase; assay: Dissociation assay (recovery of active enzyme after rapid dilution); format: biochemical; settings: rapid dilution after 2 h preincubation of compound and enzyme
Text: Although not all reaction constants for 1c could be identified, the in vitro IC50 value could be used as an indicator of the combination of k1, k–1, and k2. In this case, the IC50 value of a compound is derived from its affinity for enteropeptidase (k1 and k–1) and its reactivity against enteropeptidase (k2). […] As the affinity of a compound for enteropeptidase is expected to largely contribute to the IC50 value based on initial velocities (IC50(initial)) relative to the IC50 value based on the steady state (IC50(app)), we performed chemical modifications based on IC50(initial). […] Because T1/2 can be an indicator of k3, we focused on compounds with low IC50(initial) values and long T1/2 values.
For dissociation assay, compounds were dissolved in DMSO and then diluted in assay buffer (50 mM Tricine pH 8.0, 0.01(w/v)% Tween20, 10 mM CaCl2). 10 μL of compound solution was added in 96-well plate (corning), and then, 10 μL of 100 mU/mL human recombinant enteropeptidase (ITSI-Biosciences) solution was added into the plate and incubated at room temperature for 2 h. […] After incubation, 2 μL of the compound-enzyme mixture was transferred to a 96-well black plate (Corning) and 200 μL of substrate solution (3 μM 5FAM–Abu–[…]CPQ2)–Lys–Lys–NH2 (CPC Scientific)) was added into the well. By rapid dilution, the inhibitor concentration went to 10-fold below the IC50 from 10-fold above the IC50. The fluorescence was measured each 2 min at excitation wavelength 485 nm and emission wavelength 535 nm by EnVision (Perkin Elmer). The progress curves were fitted to following equation to determine the values for koff and dissociation half-life T1/2 according to the following equations. [drawing 4] 1 where t is time and F is fluorescence from initial rate vo to steady state rate vs. [drawing 5] 2

[6] = Plasma exposure of 2a in mice (oral and subcutaneous); format: in vivo; settings: male, mouse, read-out: AUC0-24h
[7] = Kinetic aqueous solubility at pH 1.2/6.8; format: physicochemical; settings: aqueous medium, kinetic from dmso stock
rat enteropeptidase = rat enteropeptidase (Rattus norvegicus, UniProt A0ABK0LTS6); assay: Rat enteropeptidase enzyme assay; format: biochemical
Method: The rat enteropeptidase catalytic subunit (aa 818-1057, GenBank accession no. XM_017597944) was cloned into the BglII-NotI site of the pET32a vector (Millipore). The active rat enteropeptidase catalytic subunit was obtained as described previously.[36] The rat recombinant enteropeptidase was diluted with an assay buffer (50 mM Tricine (pH 8.0), 0.01(w/v)% Tween 20, 10 mM CaCl2) to prepare a 2.4 ng/mL enzyme solution. Subsequently, 5FAM–Abu–[…]CPQ2)–Lys–Lys–NH2 (purity: 97.2%, CPC Scientific, Inc.) was diluted with an assay buffer to prepare a 5.4 μM substrate solution. Compounds were dissolved in DMSO and then diluted in the assay buffer. The compound solution (5 μL/well) and the substrate solution (5 μL/well) were added to a 384-well black plate (#784076, Greiner Bio-One) and mixed. Then, the enzyme solution (5 μL/well) was added to the plate and mixed to start the reaction. The fluorescence intensity was measured at an excitation wavelength of 485 nm and a fluorescence wavelength of 535 nm using a fluorescence plate reader EnVision (PerkinElmer Inc.). […]
as §1

DIO rats = assay: Anti-obesity effects in male DIO rats (repeated dosing, 4 weeks); format: in vivo, rat; settings: oral, 6b 1, 3 and 10 mg/kg; for body weight change / food intake: (S)-5b 10 mg/kg; for fecal protein output: day 28, (S)-5b 10 mg/kg
Method: Six-week-old male DIO F344/Jcl rats were obtained from CLEA Japan (Tokyo, Japan) and fed with a HFD D12451 (45 kcal % fat, 20 kcal % protein, and 35 kcal % carbohydrate; Research Diets, Inc.). The study involved six groups of rats (n = 6): vehicle (0.5% MC), 6b (1, 3, and 10 mg/kg), (S)-5b (SCO-792) (10 mg/kg), and sibutramine (1 mg/kg). […] were orally administered with either the vehicle or compounds starting at 36 weeks of age for 4 weeks. The body weight was monitored every 1–4 days for 4 weeks. The change in body weight is presented as a percentage of the initial body weight. Feces were collected on day 28 and evaluated for pharmacodynamic markers.

Pharmacokinetics in rats = format: in vivo, rat
Method: […] After administration, blood samples were collected and centrifuged to obtain plasma specimens. The compound concentrations in the plasma were measured using LC–MS/MS.

DIO mice = settings: cited from earlier work
[8] = 6 min incubation of enzyme, read-out: Human enteropeptidase IC50(initial)
[9] = 120 min incubation of enzyme, read-out: Human enteropeptidase IC50(app)

T1 sequence (P98073 whole entry): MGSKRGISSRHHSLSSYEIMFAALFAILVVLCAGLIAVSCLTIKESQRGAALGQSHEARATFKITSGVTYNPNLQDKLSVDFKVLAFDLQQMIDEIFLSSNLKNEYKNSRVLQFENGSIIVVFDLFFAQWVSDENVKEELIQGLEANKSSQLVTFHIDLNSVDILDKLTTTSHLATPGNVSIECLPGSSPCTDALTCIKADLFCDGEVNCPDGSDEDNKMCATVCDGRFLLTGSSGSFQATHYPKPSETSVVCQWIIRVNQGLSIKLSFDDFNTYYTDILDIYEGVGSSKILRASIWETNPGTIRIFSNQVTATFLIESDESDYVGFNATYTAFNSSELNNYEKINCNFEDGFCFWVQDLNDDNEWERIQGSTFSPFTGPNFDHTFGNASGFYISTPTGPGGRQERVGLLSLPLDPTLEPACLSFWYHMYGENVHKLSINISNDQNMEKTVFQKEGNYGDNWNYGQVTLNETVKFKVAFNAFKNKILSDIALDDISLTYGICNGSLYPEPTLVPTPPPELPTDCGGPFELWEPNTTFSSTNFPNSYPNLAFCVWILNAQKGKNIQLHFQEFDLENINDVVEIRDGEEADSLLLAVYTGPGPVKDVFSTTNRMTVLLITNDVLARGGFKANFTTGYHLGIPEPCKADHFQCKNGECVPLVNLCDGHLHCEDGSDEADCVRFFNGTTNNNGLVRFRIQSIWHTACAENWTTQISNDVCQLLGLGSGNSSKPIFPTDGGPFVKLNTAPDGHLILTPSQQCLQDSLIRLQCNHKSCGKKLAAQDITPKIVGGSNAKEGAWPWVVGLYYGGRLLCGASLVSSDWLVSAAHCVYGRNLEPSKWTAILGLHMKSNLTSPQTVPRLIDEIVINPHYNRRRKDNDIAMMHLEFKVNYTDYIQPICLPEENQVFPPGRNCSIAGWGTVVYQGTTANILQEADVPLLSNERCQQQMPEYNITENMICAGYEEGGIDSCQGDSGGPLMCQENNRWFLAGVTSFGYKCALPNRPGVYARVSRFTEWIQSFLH
rat enteropeptidase, sequence (A0ABK0LTS6 829-1068): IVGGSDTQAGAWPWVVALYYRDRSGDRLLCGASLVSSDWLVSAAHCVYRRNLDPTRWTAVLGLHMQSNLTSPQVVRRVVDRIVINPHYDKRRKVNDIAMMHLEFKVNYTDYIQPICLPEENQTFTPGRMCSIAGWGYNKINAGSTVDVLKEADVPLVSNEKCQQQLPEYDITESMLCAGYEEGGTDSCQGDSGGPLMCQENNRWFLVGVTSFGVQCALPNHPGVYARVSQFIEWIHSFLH

| SMILES | MDR1 (A to B) [1] | stability at pH 1.2 (% decomposed) [3] | stability at pH 6.8 (% decomposed) [3] | IC50 (human enteropeptidase [4]; [8]) | IC50 (human enteropeptidase [4]; [9]) | T1/2, half-time of dissociation from human enteropeptidase (human enteropeptidase [5]) | fecal protein output (fold of 2a) (High-Fat-Diet-Fed Mice; 10 mg/kg) | also measured |
| --- | --- | --- | --- | --- | --- | --- | --- | --- |
| Cl.N=C(N)Nc1ccc(C(=O)Oc2ccc(CC(=O)N[C@@H](CC(=O)O)C(=O)O)cc2)cc1 [2a, N-({4-[(4-Carbamimidamidobenzoyl)oxy]phenyl}acetyl)-L-aspartic Acid Hydrochloride] | 0 nm/s | 2.5 % decomposed | 5.0 % decomposed | 94 nM | 5.9 nM | >2 h | (1.00) fold of 2a | Papp ([2]; pH 7.4, read-out: PAMPA at pH 7.4): 0.2 ×10⁻⁶ cm/s; Papp ([2]; pH 5.0, read-out: PAMPA at pH 5.0): 0.1 ×10⁻⁶ cm/s; fecal protein content vs vehicle (High-Fat-Diet-Fed Mice; oral administration, 60 mg/kg): significant increase; fecal protein levels vs vehicle (High-Fat-Diet-Fed Mice; subcutaneous administration, 10 mg/kg): did not increase; fold enhancement in IC50(initial) relative to 1c (human enteropeptidase [4]; 6 min, glycine replaced with aspartic acid): five-fold; AUC(0-t) at 24 h ([6]; oral, 60 mg/kg): 9820 ± 3740 ng·h/mL; AUC(0-t) at 24 h ([6]; sc, subcutaneous, 10 mg/kg): 16000 ± 2640 ng·h/mL; solubility kinetic ([7]; pH 1.2, simulated gastric fluid, read-out: Kinetic aqueous solubility at pH 1.2): 76 µg/mL; solubility kinetic ([7]; pH 6.8, aqueous buffer, read-out: Kinetic aqueous solubility at pH 6.8): > 97 µg/mL |
| Cc1cc(NC(=N)N)ccc1C(=O)Oc1ccc(CC(=O)N[C@@H](CC(=O)O)C(=O)O)cc1 [3b, N-({4-[(4-Carbamimidamido-2-methylbenzoyl)oxy]phenyl}acetyl)-L-aspartic Acid] |  |  |  | 940 nM | 54 nM | >2 h |  |  |
| N=C(N)Nc1ccc(C(=O)Oc2ccc3c(c2)OC[C@H]3CC(=O)N[C@@H](CC(=O)O)C(=O)O)cc1.O [(S)-5b, N-({(3S)-6-[(4-Carbamimidamidobenzoyl)oxy]-2,3-dihydro-1-benzofuran-3-yl}acetyl)-L-aspartic Acid Hydrate] | 0 nm/s | 0.2 % decomposed | 4.4 % decomposed | 68 nM |  |  | 1.28 fold of 2a | IC50 (rat enteropeptidase): 4.6 nM; body weight change (DIO rats): body weight loss; food intake (DIO rats): reduction; fecal protein output (DIO rats): significant elevation; body weight (DIO mice): potent body weight reduction; PK in rats BA (Pharmacokinetics in rats; 10 mg/kg p.o. and 0.2 mg/kg i.v.): 0.4% |
| CC(=O)N[C@@H](C)C(=O)N[C@@H](Cc1ccccc1)C(=O)N[C@@H](CCCCN)B1O[C@@H]2C[C@@H]3C[C@@H](C3(C)C)[C@]2(C)O1 [OBE-2008] |  |  |  |  |  |  |  | rate of body weight gain (DIO mice; growth phase): significantly reduced |

Further compounds by falling IC50 (human enteropeptidase [4]; [8]), results first:

| MDR1 (A to B) [1] | stability at pH 1.2 (% decomposed) [3] | stability at pH 6.8 (% decomposed) [3] | IC50 (human enteropeptidase [4]; [8]) | IC50 (human enteropeptidase [4]; [9]) | T1/2, half-time of dissociation from human enteropeptidase (human enteropeptidase [5]) | SMILES | fecal protein output (fold of 2a) (High-Fat-Diet-Fed Mice; 10 mg/kg) | also measured |
| --- | --- | --- | --- | --- | --- | --- | --- | --- |
|  |  |  | 57 nM | 5.6 nM | 0.233 h | N=C(N)Nc1ccc(C(=O)Oc2ccc(CC(=O)N[C@@H](CC(=O)O)C(=O)O)cc2)c(Cl)c1 [3c, N-({4-[(4-Carbamimidamido-2-chlorobenzoyl)oxy]phenyl}acetyl)-L-aspartic Acid] |  |  |
| 0 nm/s | 1.1 % decomposed | 7.3 % decomposed | 20 nM | 1.2 nM |  | N=C(N)Nc1ccc(C(=O)Oc2cccc(C3=NO[C@](CC(=O)O)(C(=O)O)C3)c2)cc1 [6b, (5R)-3-{3-[(4-Carbamimidamidobenzoyl)oxy]phenyl}-5-(carboxymethyl)-4,5-dihydro-1,2-oxazole-5-carboxylic Acid] | 1.29 fold of 2a | IC50 (rat enteropeptidase; 120 min, supplement csv, unit inferred, read-out: rat enteropeptidase IC50 (120 min)): 1.5 nM; body weight change (DIO rats): potent body weight loss in a dose-dependent manner; food intake (DIO rats): significant reduction; fecal protein output (DIO rats): significant increase; melting point: 199 °C (dec.); PK in rats, plasma concentration (Pharmacokinetics in rats; 1 mg/kg p.o., below the lower limit of quantitation): < 1 ng/mL |
|  |  |  | 7.4 nM | 0.81 nM | 0.102 h | N=C(N)Nc1ccc(C(=O)Oc2ccc(CC(=O)N[C@@H](CC(=O)O)C(=O)O)cc2)c(F)c1 [3d, N-({4-[(4-Carbamimidamido-2-fluorobenzoyl)oxy]phenyl}acetyl)-L-aspartic Acid] |  |  |
